# Measured values reported in patent US11110117B2, “Skin preparation composition for external use containing complex hyaluronic acid” (J2KBIO CO., LTD., priority 2019, dated 2021).
# What was measured:
# [1] = Antioxidant effect (active oxygen scavenging) by NBT method; type: biochemical; conditions: sample 0.1 weight %, absorbance 560 nm
# Description: In order to measure the antioxidant effect, active oxygen generated by xanthine and xanthine oxidase was measured by the NBT method, and an effect of removing active oxygen by a test substance, that is, the active oxygen scavenging effect was evaluated. Active oxygen was generated by xanthine and xanthine oxidase, and this active oxygen reacts with nitro blue tetrazolium (NBT). […] 0.1 ml of a xanthine oxidase solution was added and quickly stirred, culture at 25° C. for 20 minutes was started, 0.1 ml of a 6 mM CuCl2 solution was added to stop the reaction, and an absorbance St at 560 nm was measured. In a blank test, the same operation was performed in the same manner except that distilled water was used instead of the sample solution, and an absorbance Bt was measured. In a blank of the sample solution, the same operation was performed in the same manner except that the distilled water was used instead of xanthine oxidase, and an absorbance […] was measured. Inhibition rate (%)=[1−(St−So)/(Bt−Bo)]×100 <Equation 1> St: Absorbance at 560 nm after enzyme reaction of sample solution Bt: Absorbance at 560 nm after enzyme reaction of blank test solution So: Absorbance at 560 nm before reaction of sample solution in the absence of enzyme Bo: Absorbance at 560 nm before reaction of blank test solution in the absence of enzyme
# [2] = Free radical scavenging activity by DPPH method; type: biochemical; conditions: sample 0.1 weight %, 30 minutes at 37° C.
# Description: Each sample was prepared at the concentration of 0.1% to measure DPPH free radical scavenging activity. Each sample at the above concentration was introduced to a 96-well plate, and DPPH produced with a 100 uM methanol solution was added thereto, such that the total volume of the solution became 200 μl. The resultant was left for 30 minutes at 37° C., and an absorbance was measured at 560 nm. The free radical scavenging activity (%) was calculated by Equation 2 below. Free radical scavenging activity (%)=100−(B/A)×100 <Equation 2> A: Absorbance of control wells in the absence of sample treatment B: Absorbance of experimental wells with sample treatment
# [3] = test system: Human keratinocytes HaCaT cell lines; assay: Intracellular active oxygen scavenging effect after UVB (DCFH-DA fluorescence); type: cell-based; conditions: sample 0.01 weight %, UVB 20 mJ/cm^2
# Description: Cell lines used in the experiment were the Human keratinocytes HaCaT cell lines distributed from Dr. Fusenig in German Cancer Research Center. […] Subsequently, 100 μl of HCSS treated for each concentration was added, and then the fluorescence of dichlorofluorescein (DCF) oxidized with active oxygen in the early stage was measured with a fluorescent plate reader (Ex; 485 nm, and Em; 530 nm). Subsequently, irradiation with UVB (20 mJ/cm^2) was performed, and the fluorescence after the sample treatment was measured by a fluorescent plate reader (Ex; 485 nm, and Em; 530 nm).
# MMP-1 = MMP-1 expression inhibition after UVA irradiation (ELISA); type: cell-based; conditions: retinol, concentration not given; human dermal fibroblasts, UVA 6.3 J/cm^2, 24 hours
# Description: Human dermal fibroblasts were irradiated with UVA at an energy of 6.3 J/cm^2 by using a UV chamber. With respect to UV irradiation dose and culture time, conditions for maximizing an MMP expression amount in fibroblasts were established by preliminary experiments. A negative control was wrapped in silver foil and kept for the same period of time in the UVA environment. A UVA emission amount was measured by using a UV radiometer. The cells during the UVA irradiation were the same medium inoculated before without change and were exchanged with a medium containing the samples after UVA irradiation. The medium was collected after culturing for 24 hours, and 96 wells were coated with the medium. A primary antibody (MMP-1 (Ab-5) monoclonal antibody) was treated and reacted at 37° C. for 60 minutes. After an anti-mouse IgG (whole mouse, alkaline phosphatase conjugated), which was a secondary antibody, was reacted again for about 60 minutes, the alkaline phosphatase substrate solution (1 mg/ml p-nitrophenyl phosphate in diethanolamine buffer solution) was reacted at room temperature for 30 minutes, and then an absorbance was measured at 405 nm with a plate reader. As a control, a medium to which the sample was not added was used.
# type 1 procollagen = assay: Type 1 procollagen biosynthesis promoting effect (procollagen type-1 C-peptide EIA); type: cell-based; conditions: sample 0.001 weight %; human dermal fibroblasts, 24 hours
# Description: Human dermal fibroblasts isolated from neonatal foreskin tissues were distributed from Modern Tissue Technology (MTT, Korea), and a 10% fetal bovine serum (FBS) was added to a medium of DMEM/F-12 (3:1) and cultured at the concentration of 1×10^4 cell/cm^2. At about 70% to 80% confluence, the cells were inoculated at a ratio of 1:3 and subcultured, and the cells subcultured for the third to fourth generations were used in the experiment.
# For experiments to measure the amount of procollagen, the fibroblasts were cultured by more than 90% in a 48-well plate, and then each of […], and an amount of collagen isolated in the medium after 24 hours was measured by using a procollagen type-1 C-peptide EIA kit (MK101, Takara, Japan).
compound,measurement,setting,value
"Cc1cc(C(C)(C)C)c(O)c(C(C)(C)C)c1 [BHT, butylated hydroxytoluene]",Antioxidant effect (active oxygen scavenging) (%),[1],87%
same,Free radical scavenging activity (%),[2],81%
O=C(O[C@@H]1Cc2c(O)cc(O)cc2O[C@@H]1c1cc(O)c(O)c(O)c1)c1cc(O)c(O)c(O)c1 [EGCG],Active oxygen scavenging effect (%),[3],45%
"CC1=C(/C=C/C(C)=C/C=C/C(C)=C/CO)C(C)(C)CCC1 [Retinol, retinol]",MMP-1 expression inhibition rate (%),MMP-1,38%
TGF-β,Procollagen biosynthesis promoting effect (%),type 1 procollagen,35%
